What follows are compounds tested against T1, KATP channels (Homo sapiens, UniProt O60706+Q14654) (assay: Potassium Channel Assay (FLIPR membrane potential dye, TE671 cells)). Settings: TE671 human medulloblastoma cells, room temperature, fluorescence change monitored for 3 minutes.
T1 construct: TE671 human medulloblastoma cells were obtained from ATCC; host or cells: TE671 human medulloblastoma cells
Format: cell-based
Procedure: TE671 human medulloblastoma cells were obtained from ATCC and grown in Dulbecco's modified Eagle's medium (DMEM) supplemented with 10% fetal bovine serum, 100 U/ml penicillin and 100 U/ml streptomycine.
The day before testing, the cells were plated in black 96-well plates at 50K/well. On the day of testing, the growth media was removed, then 100 μl of FLIPR buffer (20 mM HEPES, 120 mM NaCl, 2 mM KCl, 2 mM CaCl2, 1 mM MgCl2, 5 mM Glucose) and 100 μl of Membrane Potential Assay Dye (Molecular Devices) dissolved in FLIPR buffer were added to each well. The cells were incubated at room temperature for 15 to 30 min.
The effect of test compounds on KATP channels were evaluated on a fluorometric imaging plate reader (FLIPR, Molecular Devices) at room temperature. After a baseline period, 50 μl of 5× stock solution of test compound prepared in FLIPR buffer was added and fluorescence change was monitored for 3 minutes. After this reading, glyburide, a KATP channel blocker, was added to a final concentration of 5 μM to check the specificity of the test compound as a KATP channel opener. Hyperpolarization resulting from KATP channel opening was observed as a decrease in fluorescence intensity.
Representative compounds of the present invention were tested according to the procedure described above, with results as listed in Table 7 below.

T1 sequence (Q14654 whole entry): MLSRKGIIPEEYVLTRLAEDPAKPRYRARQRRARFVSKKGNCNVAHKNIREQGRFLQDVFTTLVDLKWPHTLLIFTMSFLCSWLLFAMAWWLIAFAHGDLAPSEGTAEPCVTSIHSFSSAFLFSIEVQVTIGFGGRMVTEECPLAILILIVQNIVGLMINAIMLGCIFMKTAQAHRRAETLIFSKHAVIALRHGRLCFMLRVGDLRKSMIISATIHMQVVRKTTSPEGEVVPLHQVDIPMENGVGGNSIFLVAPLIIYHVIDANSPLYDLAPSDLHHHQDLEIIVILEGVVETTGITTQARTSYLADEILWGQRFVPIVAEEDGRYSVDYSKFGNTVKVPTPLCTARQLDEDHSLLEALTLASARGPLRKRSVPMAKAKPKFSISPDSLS
T1 sequence (O60706 1-1549 isoform O60706-2): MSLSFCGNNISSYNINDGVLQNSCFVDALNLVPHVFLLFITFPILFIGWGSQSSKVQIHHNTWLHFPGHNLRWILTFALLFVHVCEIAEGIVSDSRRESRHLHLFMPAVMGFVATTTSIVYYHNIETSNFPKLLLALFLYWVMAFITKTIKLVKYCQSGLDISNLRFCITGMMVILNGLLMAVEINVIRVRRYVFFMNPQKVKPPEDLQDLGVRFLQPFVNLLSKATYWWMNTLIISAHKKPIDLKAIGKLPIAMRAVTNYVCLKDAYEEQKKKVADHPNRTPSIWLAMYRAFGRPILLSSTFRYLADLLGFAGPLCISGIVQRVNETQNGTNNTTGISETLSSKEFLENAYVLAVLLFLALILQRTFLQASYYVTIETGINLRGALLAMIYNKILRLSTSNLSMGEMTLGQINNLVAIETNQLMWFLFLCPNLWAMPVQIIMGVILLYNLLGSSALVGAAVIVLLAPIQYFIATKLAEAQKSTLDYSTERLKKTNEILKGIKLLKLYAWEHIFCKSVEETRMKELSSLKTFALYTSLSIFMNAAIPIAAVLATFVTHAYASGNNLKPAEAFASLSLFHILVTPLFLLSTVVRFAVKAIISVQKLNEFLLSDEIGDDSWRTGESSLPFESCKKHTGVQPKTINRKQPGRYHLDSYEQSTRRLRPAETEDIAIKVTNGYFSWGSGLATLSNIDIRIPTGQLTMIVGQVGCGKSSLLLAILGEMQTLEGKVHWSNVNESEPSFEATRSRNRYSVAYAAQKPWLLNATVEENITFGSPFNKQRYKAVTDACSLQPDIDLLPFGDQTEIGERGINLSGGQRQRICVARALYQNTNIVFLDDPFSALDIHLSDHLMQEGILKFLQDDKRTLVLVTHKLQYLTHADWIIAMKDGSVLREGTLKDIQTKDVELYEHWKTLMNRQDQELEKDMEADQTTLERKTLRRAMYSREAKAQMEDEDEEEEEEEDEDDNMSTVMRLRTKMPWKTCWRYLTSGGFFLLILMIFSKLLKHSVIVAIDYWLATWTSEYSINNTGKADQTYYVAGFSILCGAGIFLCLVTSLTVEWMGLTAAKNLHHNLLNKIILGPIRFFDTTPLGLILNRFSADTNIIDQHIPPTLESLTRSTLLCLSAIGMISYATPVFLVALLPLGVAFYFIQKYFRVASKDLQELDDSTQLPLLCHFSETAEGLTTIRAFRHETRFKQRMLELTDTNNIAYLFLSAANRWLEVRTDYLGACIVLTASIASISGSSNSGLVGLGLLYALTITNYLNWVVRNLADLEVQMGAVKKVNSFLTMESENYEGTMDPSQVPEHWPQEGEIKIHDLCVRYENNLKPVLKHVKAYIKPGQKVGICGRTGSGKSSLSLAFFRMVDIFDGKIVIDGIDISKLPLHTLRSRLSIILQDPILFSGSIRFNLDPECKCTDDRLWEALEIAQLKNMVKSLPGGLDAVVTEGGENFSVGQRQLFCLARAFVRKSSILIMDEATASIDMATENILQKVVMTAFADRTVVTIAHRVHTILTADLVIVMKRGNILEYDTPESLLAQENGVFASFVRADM

**Q.** With `N#Cc1cccc(-c2ccncc2C=O)c1` [Compound 51, 3-(3-Formyl-pyridin-4-yl)-benzonitrile] as the compound, how does the “% Stimulation” value read?
**A.** 48%

**Q.** And the EC50?
**A.** > 30 µM

**Q.** With `COc1ccc(C=O)cc1-c1ccncc1C=O` [Compound 53, 4-(5-Formyl-2-methoxy-phenyl)-pyridine-3-carbaldehyde] as the compound, how does the “% Stimulation” value read?
**A.** 30%

**Q.** And the EC50?
**A.** > 30 µM

**Q.** Which EC50 does the source give for `N#Cc1cccc(-c2ccncc2C(O)c2ccc(Cl)cc2)c1` (stereo not shown) [Compound 26, 3-{3-[(4-Chloro-phenyl)-hydroxy-methyl]-pyridin-4-yl}-benzonitrile] here?
**A.** 10.2 µM

**Q.** With `N#Cc1cccc(C2OCc3cnccc32)c1` (stereo not shown) [Compound 66, 3-(1,3-Dihydro-furor[3,4-c]pyridin-1-yl)-benzonitrile] as the compound, how does the EC50 read?
**A.** 8.19 µM

**Q.** For `COc1ccc(OC)c(C(O)c2cnccc2C(=O)c2ccccc2)c1` (stereo not shown) [Compound 46, {3-[(2,5-Dimethoxy-phenyl)-hydroxy-methyl]-pyridin-4-yl}-phenyl-methanone], which EC50 is on record?
**A.** 12.1 µM

**Q.** Which “% Stimulation” value does the source give for `COc1ccc(F)cc1C(O)c1cnccc1-c1cccc(C#N)c1` (stereo not shown) [Compound 36, 3-{3-[(5-Fluoro-2-methoxy-phenyl)-hydroxy-methyl]-pyridin-4-yl}-benzonitrile] here?
**A.** 24%

**Q.** What about the EC50 of the same compound?
**A.** > 30 µM

**Q.** `N#Cc1cccc(-c2ccncc2C(O)c2ccc(Cl)c(Cl)c2)c1` (stereo not shown) [Compound 24, 3-{3-[(3,4-Dichloro-phenyl)-hydroxy-methyl]-pyridin-4-yl}-benzonitrile] was tested. Which EC50 did it give?
**A.** 14.5 µM

**Q.** How did the EC50 turn out when `COc1cccc(C(O)c2cnccc2-c2cccc(C#N)c2)c1` (stereo not shown) [Compound 29, 3-{3-[Hydroxy-(3-methoxy-phenyl)-methyl]-pyridin-4-yl}-benzonitrile] was run?
**A.** 13.7 µM

**Q.** Which EC50 does the source give for `N#Cc1cccc(-c2ccncc2C(O)c2ccc(F)c(F)c2)c1` (stereo not shown) [Compound 23, 3-{3-[(3,4-Difluoro-Phenyl)-hydroxy-methyl]-pyridin-4-yl}-benzonitrile] here?
**A.** 11.4 µM

**Q.** `Cc1ccccc1C(O)c1cnccc1-c1cccc(C#N)c1` (stereo not shown) [Compound 31, 3-{3-[Hydroxy-(2-methyl-phenyl)-methyl]-pyridin-4-yl}-benzonitrile] was tested. Which EC50 did it give?
**A.** 15 µM

**Q.** `CCOC(=O)c1cnc2cc(C(F)(F)F)ccc2c1-c1cc(C(F)(F)F)ccc1F` [Compound 8, 4-(2-Fluoro-5-trifluoromethyl-phenyl)-7-trifluoromethyl-quinoline-3-carboxylic acid ethyl ester] was tested. Which “% Stimulation” value did it give?
**A.** 31%

**Q.** And the EC50?
**A.** > 30 µM

**Q.** For `COc1ccccc1C(O)c1cnccc1-c1cccc(C#N)c1` (stereo not shown) [Compound 28, 3-{3-[Hydroxy-(2-methoxy-phenyl)-methyl]-pyridin-4-yl}-benzonitrile], which EC50 is on record?
**A.** 10.2 µM

Source: patent US7671065B2, “Pyridine derivatives as potassium ion channel openers” (Janssen Pharmaceutica N.V., priority 2005, dated 2010)
